Assays:
CDKA = CDKA activity assay on protein extracted from proliferating third leaves; format: in vivo, Arabidopsis thaliana; conditions: wild type; 10 and 24 h after transfer to 25 mM mannitol or 5 μM ACC
Procedure: At 9 DAS, when the third leaf is fully proliferating, seedlings were transferred to plates containing control medium or medium supplemented with 25 mM mannitol (Sigma-Aldrich) or 5 μM ACC (Sigma-Aldrich) by gently lifting the nylon mesh with forceps. For the CDKA activity assay the transfer was done at 11 DAS; at this stage, the third leaf is still dividing and can be quickly harvested without the need for RNAlater solution (see below) that would inhibit CDKA activity. All transfers were performed 2-3 h into the day.
Total soluble protein was extracted from 50 leaves by adding extraction buffer (Van Leene et al., 2007) to ground samples, followed by two freeze-thaw steps and two centrifugation steps (20,817 g, 10 min, 4° C.), whereby the supernatant was collected each time. Equal amounts of total protein were incubated with p9^CKS1Hs-sepharose beads (De Veylder et al., 1997) and kinase assays were performed as described (De Veylder et al., 1997) with histone H1 as CDK substrate. To correct for the amount of CDKA protein purified by p9^CKS1Hs-sepharose beads, an aliquot of each sample was used for protein gel blot analysis with primary rabbit anti-PSTAIRE antibodies (Santa Cruz) (diluted 1:5000) and a secondary horseradish peroxidase-conjugated donkey anti-rabbit antibodies (GE-Healthcare) (diluted 1:10,000). Proteins were detected by chemiluminescence (Western Lightning Plus ECL, PerkinElmer Life Sciences). CDK activity and CDKA amount were quantified with ImageJ v1.41o. Control samples were arbitrarily set at 100%.

[1] = system: Arabidopsis thaliana leaf 3; assay: Leaf 3 area of ACC deaminase transgenic lines and wild type after 48 hours on mild mannitol stress; format: in vivo; conditions: wild type of the pGRF5::bACD experiment; 48 hours on 25 mM mannitol
Description: In this experiment we aimed for a downregulation of the ethylene signaling pathway only in proliferating leaf cells (chimeric genes with 2 different meristematic promoters: p4TM1 and pGR5) as compared to a downregulation of the ethylene signaling in the entire plant (chimeric gene with the […] promoter). The transgene which was used for downregulation of the ethylene signaling was the ACC deaminase (a bacterial form and a plant form), an enzyme that degrades the ethylene precursor ACC. […]
Plant were transferred to plates containing 25 mM mannitol, hereby exposing them to mild mannitol stress, at a stage where the third leaf is fully proliferating, allowing to study the response of proliferating leaf cells to stress. After 48 hours on mild mannitol stress, leaf 3 was microdissected and its size was measured to calculate the extent of growth inhibition. […]
The plant growth and stress set-up was the same as previously described (Skirycz et al (2011) Plant Cell 23: 1876-1888). […] Slides were photographed, and leaf area was measured using ImageJ 1.41o.

SMILES: OC[C@@H](O)[C@@H](O)[C@H](O)[C@H](O)CO [mannitol]
- CDKA activity (CDKA): decreased as early as 10 h after stress onset and remained low at 24 h
- growth inhibition of leaf 3 area [1]: about 10%

— patent publication US20140130208A1, “METHODS AND MEANS TO PRODUCE ABIOTIC STRESS TOLERANT PLANTS” (VIB VZW, priority 2011, published 2014)
